Results reported in publication PMC12040169 (PLOS Biology, 2025).

Assay: in vitro
Details: human, hela cells, % viability

Structure (SMILES) | viability at 28.5 h, 10 µM [%]
CN1CC2(CCCN(Cc3noc(-c4ccccc4)n3)C2)OC1=O (stereo not drawn) [CBK306952] | 93
Cc1ccc2nc(NCCC(=O)O)nc(-c3ccccc3)c2c1 [CBK266537] | 97.4
Cc1cc(=O)n(CC(=O)NCCn2ccnc2)c2ccccc12 [CBK281583] | 94.3
O=C(NC1CCS(=O)(=O)C1)c1cc(-c2cccnc2)cnc1NCc1ccc2c(c1)OCO2 (stereo not drawn) [CBK076455] | 89.2
O=C(NCc1c(O)c(Cl)cc(Cl)c1Cl)c1ccccc1 [CBK260920] | 94.2
CSCC(O)Cn1nc(O)cc(C)c1=O (stereo not drawn) [CBK006293] | 105
CCOc1ccc(-n2c(SCc3nc(-c4ccccc4C)no3)nnc2-c2ccccc2)cc1 [CBK268910] | 109
Cn1ccc2cc(-c3cn4ccnc4c(N4CCOCC4)n3)ccc21 [CBK066696] | 89.1
O=C(Nc1ccc(F)cc1)c1cccc(NS(=O)(=O)c2cc(Cl)sc2Cl)c1 [CBK038980] | 95.8
NC(=O)c1c(NC(=S)NC(=O)c2ccccc2Br)sc2c1CCC2 [CBK265543] | 89.3
CN(c1ccccc1)S(=O)(=O)c1cccc(NC(=O)Cc2csc(-c3ccco3)n2)c1 [CBK297792] | 75.9
COc1ccc(S(=O)(=O)N(C)CC(=O)Nc2ccc(S(N)(=O)=O)cc2)cc1 [CBK265922] | 102
COc1ccc2c(C)nc(NC3=NC(c4ccccc4)CC(=O)N3)nc2c1 (stereo not drawn) [CBK270230] | 85.4
O=C(Cc1cccc(F)c1)N1CCC(c2cc3ncccc3[nH]2)CC1 [CBK283374] | 100
O=C(Nc1cccnc1)N1CCN(CCc2ccccc2)CC1 [CBK158937] | 95.4
Cc1nn(C)cc1CN1CCCC1c1nc(N(C)C)ncc1-c1cccc(Cl)c1 (stereo not drawn) [CBK286501] | 86
CCN1CCCCC1CNC(=O)Cn1nc(C)c(C)c1C (stereo not drawn) [CBK282208] | 105
CCN(CC)C(=O)c1ccccc1NS(=O)(=O)c1cc(Br)c(Cl)s1 [CBK045424] | 91.3
O=C1CC(C(=O)Nc2ccccn2)c2ccccc2N1 (stereo not drawn) [CBK297771] | 101
CC(C)C[C@H]1NC(=O)C2(C/C=C/C[C@@H]3COCC[C@@H]3NC1=O)CCN(C(=O)[C@@H](N)Cc1c[nH]c3ccccc13)CC2 [CBK292200] | 109
COc1ccc(CCN[C@H]2CCC[C@@H]2O)cc1OC [CBK005354G] | 78.4
COCCN1C(=O)C2(CC(=O)N(CC3CCCCC3)C2=O)c2cc(OC)ccc21 (stereo not drawn) [CBK075166] | 90

Structure (SMILES) | viability at 28.5 h, 10 µM [%]
O=C1NC2(CCC2)C(=O)N1Cc1coc(-c2cccs2)n1 [CBK305209] | 95.9
O=C(Nc1ccc(F)cc1)c1sccc1NS(=O)(=O)Cc1ccccc1 [CBK004574] | 106
COc1ccc([C@]23CN(C)C[C@H]2CCN(C(=O)c2ccc4c(c2)OC(F)(F)O4)C3)cc1OC [CBK075110T] | 94.8
COc1ccc2[nH]cc(CCNC(=O)N3CCCC(C(=O)O)C3)c2c1 (stereo not drawn) [CBK161351] | 108
Cn1ccnc1C(NC(=O)N1CCOCC1)c1ccc(F)c(F)c1 (stereo not drawn) [CBK283781] | 87.4
COc1cc(OCc2ccccc2)ccc1CN1CCN(Cc2ccccc2)CC1 [CBK074766] | 88.1
CCn1c(SCC(=O)c2ccc(F)cc2)nnc1C(C)Oc1ccccc1 (stereo not drawn) [CBK269695] | 108
Cc1cc(C)c(NC(=O)CSc2ncccc2-c2nc(C)no2)c(C)c1 [CBK287821] | 86.7
CS(=O)(=O)Nc1ccc2cc(-c3ccsc3)cnc2n1 [CBK085665] | 102
OC(CSc1ccc(F)cc1)CN1CCN(c2ccc(C(F)(F)F)cn2)CC1 (stereo not drawn) [CBK074688] | 91.2
OCCN1CC2(CCN(Cc3ccc4ccccc4c3)CC2)c2ccccc21 [CBK131529] | 92.6
Cc1ccc(OCCOc2cccc(/C=N/n3cnnc3)c2)cc1 [CBK263028] | 111
CCc1nsc(N2CCC(Oc3cccnc3N(C)C)C2)n1 (stereo not drawn) [CBK304498] | 110
COc1ccc(NC(=N)Nc2nc(=O)cc(CSc3nc4ccccc4s3)[nH]2)cc1 [CBK266256] | 101
CS(=O)(=O)N1CCC2(CC1)Cn1c(cc3ccccc31)C(=O)O2 [CBK282820] | 87.1
COc1cccc(NC(=O)CSc2nnc(CC(C)C)n2C)c1 [CBK269626] | 103
CCOC(=O)c1c(C)oc2ccc(OCC(=O)c3ccc(Br)cc3)cc12 [CBK263841] | 92.4
c1ccc2sc([C@H]3CCNC3)nc2c1 [CBK289389] | 91.2
CCn1cncc1CN(CCCn1ccnc1)Cc1ccc(C)s1 [CBK283104] | 93.6
O=C(CCCc1nc2ccccc2c(=O)[nH]1)NC(Cc1ccc(O)cc1)C(=O)O (stereo not drawn) [CBK297130] | 101
CC(=O)N1c2ccc(-c3cn4cc(C)ccc4n3)cc2CC1C (stereo not drawn) [CBK285195] | 82.5
CCOC(=O)c1[nH]c2ccccc2c1NS(=O)(=O)c1cccc(Cl)c1C [CBK047423] | 88.9

Structure (SMILES) | viability at 28.5 h, 10 µM [%]
Cc1ccc(C(=O)N2CN(C(=O)CNCC(C)C)CC2(C)C)cc1 [CBK089576C] | 96
C=C(C)CN1CCN(C(=O)c2c(C)oc3ccc(O)cc23)CC1 [CBK282626] | 95
O=C(Nc1ccccc1C(F)(F)F)c1ccc(-n2cnnn2)cc1 [CBK300521] | 86.8
CC(C)Cn1cncc1CNS(=O)(=O)c1cccc(C(=O)N2CCC2)c1 [CBK307068] | 90.3
Cc1ccccc1NC(=O)N1CCC2(CC1)NCCc1c2[nH]c2ccc(O)cc12 [CBK046904] | 91
COc1cc(-c2cn3ccnc3c(NCC3CCOCC3)n2)cc(OC)c1OC [CBK037284] | 96.8
CCc1nc2ccc(C(=O)N(C)CCN(C)C)cn2c1N(C)C(=O)Cc1ccccc1 [CBK146858] | 90.8
CCN1/C(=C/C(=C/c2sc3ccccc3[n+]2CCCS(=O)(=O)[O-])OC)Sc2ccccc21 [CBK278203] | 99.7
CCOC(=O)c1c(NC(=O)NCc2ccncc2)sc2c1CCC2 [CBK307591] | 81.6
O=C(c1cc2c(s1)CCCC2)N1CCCCC1c1nnc(-c2nccc3ccccc23)o1 (stereo not drawn) [CBK285577] | 61
CCCC(=O)NC(c1ccc(OC)c(OC)c1)c1c(O)ccc2ccccc12 (stereo not drawn) [CBK263269] | 95.2
COc1ccc(Nc2ncnc3oc(C)c(C)c23)cc1 [CBK288163] | 93.3
O=C(O)C1(NCc2ccccc2Cl)CCCCC1 [CBK287269] | 78.9
CC(C)c1cc(C(=O)N2CCN(C)C(=O)C2Cc2ccccc2-c2ccc(F)cc2)[nH]n1 (stereo not drawn) [CBK285833] | 92.1
COc1nc(-c2ccccc2)ccc1-c1noc(COc2ccccc2)n1 [CBK266841] | 91.8
CN1C=NC2C1C(=O)N(CCn1c(=O)c3c(ncn3C)n(C)c1=O)C(=O)N2C (stereo not drawn) [CBK268678] | 101
COc1cc(Nc2cncc(-c3cccnc3)n2)cc(OC)c1OC [CBK065201] | 93.7
Cc1cc(NC(=O)C2CCN(C(=O)c3cnc(N)c(Cl)c3)CC2)no1 [CBK305545] | 110
Nc1ncnc2c1nc1n2[C@@H]2O[C@H](C1)[C@H](O)C2O (stereo partly drawn) [CBK201224] | 108
Cc1ccc(C)n1-c1ccc(C(=O)OCC(=O)c2cccc([N+](=O)[O-])c2)cc1 [CBK264427] | 97.8
Cc1cc(Cl)cc(Cl)c1S(=O)(=O)Nc1nc(-c2cccc([N+](=O)[O-])c2)cs1 [CBK000902] | 111
Cc1cc(-c2nc3ncccc3o2)ccc1NC(=O)c1ccc2c(c1)OCCO2 [CBK270104] | 94.1

Structure (SMILES) | viability at 28.5 h, 10 µM [%]
COc1cc(C(CC(=O)O)C(=O)O)c([N+](=O)[O-])cc1OC (stereo not drawn) [CBK268541] | 96.9
COc1ccc(-c2noc([C@@H]3Cc4[nH]cnc4CN3C(=O)CCC(=O)O)n2)cc1 [CBK288967] | 90.3
CCOC(=O)C1CCCCN1S(=O)(=O)c1ccc(Br)s1 (stereo not drawn) [CBK096110] | 102
COc1cc(/C=N/NC(=O)CCN2CCN(C)CC2)cc(OC)c1O [CBK261500] | 100
N#Cc1cccc(C(=O)N2CCC3(CCN(C(=O)c4cc(F)c(F)cc4F)C3)C2)c1 (stereo not drawn) [CBK131387] | 97.2
O=C(CCC(=O)Nc1ccc(F)cc1)N/N=C/c1ccc(O)cc1O [CBK261766] | 112
Cc1ccc(C)c2c(C)c(C(=O)NCC[S+](C)[O-])[nH]c12 (stereo not drawn) [CBK282484] | 76.5
Cc1nn2c(CN(C(=O)COc3ccccc3)c3ccccc3)nnc2c2ccccc12 [CBK268036] | 83.4
CN(C)c1ccc(CNC(=O)Cn2nc(C(=O)O)c3ccccc3c2=O)cc1 [CBK295330] | 105
O=C(Cn1c(C(F)(F)F)nc2ccccc21)NCCN1CCOCC1 [CBK267339] | 100
COc1ccc2c(c1)C1(CC(=O)N(CCc3scnc3C)C1=O)C(=O)N2Cc1ccccc1 (stereo not drawn) [CBK075240] | 95.7
CCn1cc(S(=O)(=O)Nc2ccc3c(ccn3C)c2)c(C)n1 [CBK282818] | 84.2
CN(C)CCN1C(=O)C(O)=C(C(=O)c2ccc(S(=O)(=O)N(C)C)cc2)C1c1cccnc1 (stereo not drawn) [CBK264729] | 99.7
O=C(O)c1cc(S(=O)(=O)NC(CO)C(O)c2ccc([N+](=O)[O-])cc2)ccc1Br (stereo not drawn) [CBK262515] | 104
O=c1oc2ccc(Cl)cc2n1C1CCN(Cc2ccco2)CC1 [CBK284342] | 102
CCC(=O)Oc1ccc(/N=C2/NC(C)(C)O2)cc1 [CBK010922] | 87.6
CCc1noc(C)c1C(=O)NCCN(C)C [CBK268118] | 97.5
COc1ccc(N2C(=O)CC(NNC(=O)CNC(C)=O)C2=O)cc1 (stereo not drawn) [CBK267228] | 87.7
COc1ccc(/C=C/C(=O)c2ccc(OC)cc2OC)c(OC)c1 [CBK261666] | 87.3
O=S(=O)(c1ccc(Cl)cc1)N1CCN(CC(O)Cn2c3ccccc3c3ccccc32)CC1 (stereo not drawn) [CBK264383] | 105
COc1cccc(N2CC(C(=O)Nc3cccc(C(=O)O)c3)CC2=O)c1 (stereo not drawn) [CBK286612] | 99.7
